In patent US20260199497A1, “GLUCOCORTICOID RECEPTOR AGONIST AND CONJUGATE THEREOF” (priority 2023, published 2026):

Assays:
Assay type in all cases: cell-based
[1] = tested on: mouse B cells; test: In vitro inhibition of the proliferation of mouse B cells by the glucocorticoid; conditions: 4 days; for IC50: B-cell, 96 h, LPS 5 μg/ml stimulated mouse spleen B cells, live cells by flow cytometry; for in-vitro inhibitory activity on the proliferation of mouse B cells: LPS 5 μg/ml, ranking of the compounds
Experimental: According to instructions of the EasySEP mouse panB cell sorting kit (Stemcell/1984/1×100e9 cells), B cells were isolated from mouse spleen cells. After obtaining the B cells, they were resuspended in complete medium (1640+10% FBS+50 uM β-mercaptoethanol), and added to a 96-well cell culture plate at 1E5 cells/100 μL per well. 4×LPS (20 μg/ml) was prepared, and add to the plated cells at 50 μL per well, with a final concentration of 5 μg/ml. The glucocorticoid was diluted with complete medium in a 5-fold gradient, starting at a final concentration of 20 nM, and added to the plated cells at 50 μL per well. The cells were incubated in a 37° C. cell culture incubator for 4 days. Then PI was added to the cells for dead cell staining, and the number of live cells was detected by flow cytometry. The cell viability was calculated using the number of live cells in the untreated wells as the denominator. The cell viability values was imported into the GraphPad Prism 8 software to calculate IC50. The structure of the comparative compound 1 is as follows: […]

[2] = molecular target: T1, glucocorticoid receptor (Homo sapiens, UniProt P04150); test: In vitro activation activity of the glucocorticoid on the glucocorticoid receptor in Hela-MMTV luciferase reporter cells; conditions: 48 hours; for in vitro activation activity on the glucocorticoid receptor in the cells: Hela-MMTV cells, compared with comparative compound 1; for EC50: Hela-MMTV luciferase reporter cells
T1 sequence (P04150 1-777): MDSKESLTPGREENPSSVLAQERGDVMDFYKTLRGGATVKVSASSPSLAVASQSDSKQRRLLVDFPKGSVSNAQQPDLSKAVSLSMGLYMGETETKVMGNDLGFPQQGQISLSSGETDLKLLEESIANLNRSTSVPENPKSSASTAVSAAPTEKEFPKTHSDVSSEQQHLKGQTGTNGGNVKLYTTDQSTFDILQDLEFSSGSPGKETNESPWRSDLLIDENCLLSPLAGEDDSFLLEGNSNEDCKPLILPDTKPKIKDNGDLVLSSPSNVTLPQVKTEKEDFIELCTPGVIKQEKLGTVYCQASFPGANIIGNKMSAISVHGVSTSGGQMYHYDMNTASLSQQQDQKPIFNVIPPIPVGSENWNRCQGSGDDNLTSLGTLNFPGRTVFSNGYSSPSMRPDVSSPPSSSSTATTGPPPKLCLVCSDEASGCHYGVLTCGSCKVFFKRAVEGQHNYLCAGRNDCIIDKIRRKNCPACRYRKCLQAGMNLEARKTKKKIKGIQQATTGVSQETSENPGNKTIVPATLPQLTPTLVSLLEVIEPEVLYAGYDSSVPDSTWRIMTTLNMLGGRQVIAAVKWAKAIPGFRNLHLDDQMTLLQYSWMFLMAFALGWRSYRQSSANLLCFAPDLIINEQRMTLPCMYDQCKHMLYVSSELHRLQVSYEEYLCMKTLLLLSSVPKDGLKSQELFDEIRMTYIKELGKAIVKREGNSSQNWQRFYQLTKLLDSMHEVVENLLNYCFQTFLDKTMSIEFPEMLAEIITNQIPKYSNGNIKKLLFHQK
Experimental: The activation activity of the glucocorticoid on glucocorticoid receptor was tested in the constructed Hela-MMTV luciferase reporter system cells. Adherent Hela-MMTV cells were digested using a Trypsin-EDTA (0.25%) solution, counted, and the cells in a required number were resuspended in complete medium (1640+10% FBS). The cells were then plated in a 96-well cell culture plate at 10,000 cells/100 μl. The glucocorticoid was diluted in complete medium, starting at a final concentration of 75 nM, followed by 5-fold gradient dilution, and was added to the plated cells at 100 μl per well. The cells were incubated in a cell culture incubator at 37° C. for 48 hours. Then Bio-Lite luciferase assay reagent (Vazyme DD1201-03) was added to the cells at 20 μl per well, followed by homogeneously shaking for 10 minutes, and luminescence readings were obtained using a microplate reader. The data were imported into GraphPad Prism 8 software to calculate the EC50 value.

[3] = molecular target: T2, glucocorticoid receptor (Homo sapiens, UniProt P04150); test: GRE reporter gene test (Experiment Example 1), HEK293T cells transfected with pGL4.35 and p-Bind GR Vector; conditions: for EC50: GRE reporter gene, HEK293T cells, 18-20 h incubation; for Emax: HEK-293T
T2 sequence (P04150 524-777 limits assumed): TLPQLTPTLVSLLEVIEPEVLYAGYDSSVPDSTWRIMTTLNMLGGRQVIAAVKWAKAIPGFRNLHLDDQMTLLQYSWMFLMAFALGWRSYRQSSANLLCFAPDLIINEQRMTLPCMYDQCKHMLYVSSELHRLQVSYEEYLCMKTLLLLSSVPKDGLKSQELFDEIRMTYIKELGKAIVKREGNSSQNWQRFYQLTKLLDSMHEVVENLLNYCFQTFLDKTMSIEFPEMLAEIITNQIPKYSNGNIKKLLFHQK
Experimental: The compound of the present invention to be tested was formulated into a 10 mM solution with DMSO, and then subjected to 4-fold dilution at 10 concentration points using DMSO to obtain a 1000× mother liquor, with a final test concentration of 0.000038-10 μM.
(§1) HEK293T cells (ATCC) were plated in a 100 mm culture dish at a density of 6*10^6 cells/culture dish, and cultured for 16 h under the conditions of 37° C. and 5% CO2. Plasmids (pGL4.35 [luc2P/9XGAL4 UAS/Hygro], p-Bind GR Vector, Promega) and Lipofectamine® 3000 (Invitrogen) were mixed, added into the culture dish, and then incubated for 5-6 h under the conditions of 37° C. and 5% CO2.
In a 384-well plate (PerkinElmer), 25 nL of the compound mother liquor was added, and then HEK293T cells transfected with plasmids were added at a density of 18000 cells/well. The cells were incubated for 18-20 h under the conditions of 37° C. and 5% CO2.
After the incubation was ended, 25 μL of britelite plus luciferase assay reagent (PerkinElmer) was added, and then reading was performed using an Envision 2105 multiplate reader (PerkinElmer).
(§2) The activity was calculated using the following formula, % activity=100*(signal of compound well−average signal of negative control well)/(average signal of positive control well−average signal of negative control well). […] Fitting calculation of EC50 was performed on % activity and the logarithmic concentration of the compound using Graphpad 8.0, Y=Bottom+(Top−Bottom)/(1+10^((Log EC50−X)*HillSlope)), wherein Y is % activity, and X is the logarithmic concentration of the compound.

[4] = molecular target: T2, glucocorticoid receptor; test: GRE reporter gene test (Experiment Example 2), HEK293T cells transfected with pGL4.35 and p-Bind GR Vector; conditions: for EC50: GRE reporter gene, HEK293T cells, 18-20 h incubation; for Emax: HEK-293T
Experimental: The compound of the present invention to be tested was formulated into a 1 mM solution with DMSO, and then subjected to 4-fold dilution at 10 concentration points using DMSO to obtain a 1000× mother liquor, with a final test concentration of 0.0000038-1 μM.
as §1
In a 384-well plate (PerkinElmer), 25 nL of the compound mother liquor was added, and then HEK293T cells transfected with plasmids were added at a density of 18000 cells/well (25 μL). The cells were incubated for 18-20 h under the conditions of 37° C. and 5% CO2.
After the incubation was ended, 25 μL of britelite plus luciferase assay reagent (PerkinElmer) was added, and then reading was performed using an Envision 2105 multimode reader (PerkinElmer).
as §2

[5] = compared with dexamethasone, transfected HEK293T cells

SMILES | IC50 [1] [nM] | EC50 [2] [nM] | EC50 [3] [nM] | Emax ([3]; read-out: Emax) [%] | Emax [4] [%] | other results
C[C@]12C=CC(=O)C=C1[C@@H](F)C[C@H]1[C@@H]3CC[C@](OC(=O)c4ccc(F)c(N)c4)(C(=O)SCF)[C@@]3(C)C[C@H](O)[C@@]12F [A-1] | 0.032 | 0.0097 | 0.2 | 102 | – | in-vitro inhibitory activity on the proliferation of mouse B cells [1]: most strongest inhibitory activity; in vitro activation activity on the glucocorticoid receptor in the cells [2]: superior to comparative compound 1; maximum agonistic effect (Emax) [3, 5]: superior to dexamethasone
C[C@H]1C[C@@]2(C)[C@@H](C[C@H]3O[C@@H](c4ccc(Cc5cccc(N)c5)cc4)O[C@]32C(=O)CO)[C@@H]2CCC3=CC(=O)C=C[C@]3(C)[C@H]21 [Comparative example 1] | 0.825 | – | – | – | – | –
C[C@@H]1C[C@H]2[C@@H]3C[C@H](F)C4=CC(=O)C=C[C@]4(C)[C@@]3(F)[C@@H](O)C[C@]2(C)[C@@]1(OC(=O)CCO)C(=O)SCF [D-5] | 0.312 | 0.154 | – | – | 132 | in vitro activation activity on the glucocorticoid receptor in the cells [2]: superior to comparative compound 1; EC50 [4]: 1.3 nM; maximum agonistic activity (Emax) [4, 5]: superior to dexamethasone
C[C@H](O)CC(=O)O[C@]1(C(=O)SCF)[C@H](C)C[C@H]2[C@@H]3C[C@H](F)C4=CC(=O)C=C[C@]4(C)[C@@]3(F)[C@@H](O)C[C@@]21C [D-15, (6S,8S,9R,10S,11S,13S,14S,16R,17R)-6,9-difluoro-17-(((fluoromethyl)thio)carbonyl)-11-hydroxy-10,13,16-trimethyl-3-oxo-6,7,8,9,10,11,12,13,14,15,16,17-dodecahydro-3H-cyclopenta[a]phenanthren-17-yl (S)-3-hydroxybutyrate] | – | 0.074 | – | – | 102 | EC50 [4]: 1.4 nM
C[C@@H]1C[C@H]2[C@@H]3CCC4=CC(=O)C=C[C@]4(C)[C@@]3(F)[C@@H](O)C[C@]2(C)[C@@]1(O)C(=O)CO [Dexamethasone, reference compound] | – | – | – | – | 98.3 | Emax [3]: 100%
C[C@@H]1C[C@H]2[C@@H]3C[C@H](F)C4=CC(=O)C=C[C@]4(C)[C@@]3(F)[C@@H](O)C[C@]2(C)[C@@]1(OC(=O)c1ccc(F)c(N)c1)C(=O)OCCl [O-3, chloromethyl (6S,8S,9R,10S,11S,13S,14S,16R,17R)-17-((3-amino-4-fluorobenzoyl)oxy)-6,9-difluoro-11-hydroxy-10,13,16-trimethyl-3-oxo-6,7,8,9,10,11,12,13,14,15,16,17-dodecahydro-3H-cyclopenta[a]phenanthrene-17-carboxylate] | – | – | 0.4 | 87.7 | – | –
C[C@@H]1C[C@H]2[C@@H]3C[C@H](F)C4=CC(=O)C=C[C@]4(C)[C@@]3(F)[C@@H](O)C[C@]2(C)[C@@]1(OC(=O)c1ccnc(N)c1)C(=O)SCF [P-1, (6S,8S,9R,10S,11S,13S,14S,16R,17R)-6,9-difluoro-17-(((fluoromethyl)thio)carbonyl)-11-hydroxy-10,13,16-trimethyl-3-oxo-6,7,8,9,10,11,12,13,14,15,16,17-dodecahydro-3H-cyclopenta[a]phenanthren-17-yl 2-aminoisonicotinate] | – | – | 1.4 | 91.2 | – | –
C[C@H]1C[C@@]2(C)[C@@H](C[C@H]3O[C@@H](c4ccc(Cc5cccc(N)c5)cc4)O[C@]32C(=O)CO)[C@@H]2CCC3=CC(=O)C=C[C@]3(C)[C@H]21 [comparative compound 1, reference compound] | – | 0.956 | – | – | – | in-vitro inhibitory activity on the proliferation of mouse B cells [1]: relatively the weakest inhibitory activity
